In patent US20200077655A1, “Use of an Acyclic Picolinamide Compound as a Fungicide for Control of Phytopathogenic Fungi in Orchard, Vineyard and Plantation Crops” (Dow AgroSciences LLC, priority 2017, published 2020):

Tested on: Alternaria mali (ALTEMA)
Experiment: Field assessment of leaf spot of apple, protectant and curative trials
Type: in vivo
Experimental: Assessment of compound I on leaf spot of apple (ALTEMA), in both protectant and curative fashion, was performed in two separate field trials. For the protectant trial, a fungicidal treatment containing a 10% SC formulation of Compound I, either alone or with an adjuvant (Agnique BP420, 50% w/w at 0.3% v/v; or ETHOMEEN T18H, 50% w/w at 0.2% v/v), was sprayed on the plant canopy of apple trees (Hongxing variety) six times during the growing season of apples with each application coming at 15 day intervals. Formulations of Compound I, with or without adjuvants, were applied at rates of 100, 125 and 150 grams of active ingredient per hectare (g ai/ha) and were applied at water volume of 4500 L/ha. The experimental plots were inoculated three times with the leaf spot pathogen, the first inoculation performed at 2 days after the first application (Application A, 2DAAA), with the following applications at 2DAAC and 2DAAD. The treatment was part of an experimental trial designed as a randomized complete block with three replications and a plot size of 3 trees.
For the curative trial, a fungicidal treatment containing a 10% SC formulation of Compound I, either alone or with an adjuvant (Agnique BP420, 50% w/w at 0.3% v/v; or ETHOMEEN T18H, 50% w/w at 0.2% v/v), was sprayed on the plant canopy of apple trees (Hongxing variety) six times during the growing season of apples with each application coming at 15 day intervals. Formulations of Compound I, with or without adjuvants, were applied at rates of 100, 125 and 150 grams of active ingredient per hectare (g ai/ha) and were applied at water volume of 4500 L/ha. The experimental plots were inoculated three times with the leaf spot pathogen, the first inoculation performed at 5 days before the first application. The second inoculation was at 5 days before the third application and the third inoculation coming at 5 days before the fourth application. The treatment was part of an experimental trial designed as a randomized complete block with three replications and a plot size of 3 trees.
Disease incidence was assessed as percentage of diseased foliage per plant. Apple leaf spot infection was assessed six times, with the last assessment coming at 90 days after the first application. Area under the disease progress curve (AUDPC) was calculated for each plot using the sets of recorded visual infection data. Relative AUDPC (% control based on AUDPC) was calculated as percent of the nontreated control.

[1] = 100 g ai/ha, adjuvant ETHOMEEN, 10% SC
[2] = 100 g ai/ha, adjuvant None, 10% SC
[3] = 125 g ai/ha, adjuvant Agnique BP420, 10% SC
[4] = 125 g ai/ha, adjuvant ETHOMEEN, 10% SC
[5] = 150 g ai/ha, adjuvant ETHOMEEN, 10% SC

`COc1ccnc(C(=O)N[C@@H](C)C(=O)O[C@@H](C)C(c2ccc(F)cc2)c2ccc(F)cc2)c1OC(C)=O` [Compound I, (S)-1,1-bis(4-fluorophenyl)propan-2-yl (3-acetoxy-4-methoxypicolinoyl)-L-alaninate] was tested, and the “% Control Curative (AUDPC, leaf infection)” value (shortened to “% Control Curative”) [1] was “A (76-100)”, the “% Control Protectant (AUDPC, leaf infection)” value (from here on “% Control Protectant”) [1] was “A (76-100)” and the “% Control Curative” value [2] was “B (51-75)”. For the same molecule, the “% Control Protectant” value [2] was “B (51-75)”, the “% Control Curative” value [3] was “A (76-100)” and the “% Control Protectant” value [3] was “A (76-100)”. For the same molecule, the “% Control Curative” value [4] was “A (76-100)”, the “% Control Protectant” value [4] was “A (76-100)” and the “% Control Curative” value [5] was “A (76-100)”. For the same molecule, the “% Control Protectant” value [5] was “A (76-100)”.
